Experimental data taken from patent publication US9586951B2 (FUJIFILM Corporation, priority 2013, dated 2017).
pIC50: −log10 of the molar value.

Target: T1, ATM (Homo sapiens, UniProt Q13315)
T1 construct: detecting phosphorylation of Chk2 in a human non-small cell lung cancer cell line NCI-H460 (ATCC company); host or cells: NCI-H460 human non-small cell lung cancer cells
Test: ATM inhibition test (phosphorylation of Chk2 generated by ionizing radiation, AlphaScreen SureFire)
Type: cell-based
Settings: ATM inhibitory activity, phosphorylated Chk2 in NCI-H460 cells, ionizing radiation 8Gy, 1 hour after test compound treatment
In short: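 In NCI-H460 cells, radiation-triggered Chk2 phosphorylation (8Gy, 1 h) is detected by AlphaScreen SureFire following 1 h compound exposure.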

T1 sequence (Q13315 whole entry): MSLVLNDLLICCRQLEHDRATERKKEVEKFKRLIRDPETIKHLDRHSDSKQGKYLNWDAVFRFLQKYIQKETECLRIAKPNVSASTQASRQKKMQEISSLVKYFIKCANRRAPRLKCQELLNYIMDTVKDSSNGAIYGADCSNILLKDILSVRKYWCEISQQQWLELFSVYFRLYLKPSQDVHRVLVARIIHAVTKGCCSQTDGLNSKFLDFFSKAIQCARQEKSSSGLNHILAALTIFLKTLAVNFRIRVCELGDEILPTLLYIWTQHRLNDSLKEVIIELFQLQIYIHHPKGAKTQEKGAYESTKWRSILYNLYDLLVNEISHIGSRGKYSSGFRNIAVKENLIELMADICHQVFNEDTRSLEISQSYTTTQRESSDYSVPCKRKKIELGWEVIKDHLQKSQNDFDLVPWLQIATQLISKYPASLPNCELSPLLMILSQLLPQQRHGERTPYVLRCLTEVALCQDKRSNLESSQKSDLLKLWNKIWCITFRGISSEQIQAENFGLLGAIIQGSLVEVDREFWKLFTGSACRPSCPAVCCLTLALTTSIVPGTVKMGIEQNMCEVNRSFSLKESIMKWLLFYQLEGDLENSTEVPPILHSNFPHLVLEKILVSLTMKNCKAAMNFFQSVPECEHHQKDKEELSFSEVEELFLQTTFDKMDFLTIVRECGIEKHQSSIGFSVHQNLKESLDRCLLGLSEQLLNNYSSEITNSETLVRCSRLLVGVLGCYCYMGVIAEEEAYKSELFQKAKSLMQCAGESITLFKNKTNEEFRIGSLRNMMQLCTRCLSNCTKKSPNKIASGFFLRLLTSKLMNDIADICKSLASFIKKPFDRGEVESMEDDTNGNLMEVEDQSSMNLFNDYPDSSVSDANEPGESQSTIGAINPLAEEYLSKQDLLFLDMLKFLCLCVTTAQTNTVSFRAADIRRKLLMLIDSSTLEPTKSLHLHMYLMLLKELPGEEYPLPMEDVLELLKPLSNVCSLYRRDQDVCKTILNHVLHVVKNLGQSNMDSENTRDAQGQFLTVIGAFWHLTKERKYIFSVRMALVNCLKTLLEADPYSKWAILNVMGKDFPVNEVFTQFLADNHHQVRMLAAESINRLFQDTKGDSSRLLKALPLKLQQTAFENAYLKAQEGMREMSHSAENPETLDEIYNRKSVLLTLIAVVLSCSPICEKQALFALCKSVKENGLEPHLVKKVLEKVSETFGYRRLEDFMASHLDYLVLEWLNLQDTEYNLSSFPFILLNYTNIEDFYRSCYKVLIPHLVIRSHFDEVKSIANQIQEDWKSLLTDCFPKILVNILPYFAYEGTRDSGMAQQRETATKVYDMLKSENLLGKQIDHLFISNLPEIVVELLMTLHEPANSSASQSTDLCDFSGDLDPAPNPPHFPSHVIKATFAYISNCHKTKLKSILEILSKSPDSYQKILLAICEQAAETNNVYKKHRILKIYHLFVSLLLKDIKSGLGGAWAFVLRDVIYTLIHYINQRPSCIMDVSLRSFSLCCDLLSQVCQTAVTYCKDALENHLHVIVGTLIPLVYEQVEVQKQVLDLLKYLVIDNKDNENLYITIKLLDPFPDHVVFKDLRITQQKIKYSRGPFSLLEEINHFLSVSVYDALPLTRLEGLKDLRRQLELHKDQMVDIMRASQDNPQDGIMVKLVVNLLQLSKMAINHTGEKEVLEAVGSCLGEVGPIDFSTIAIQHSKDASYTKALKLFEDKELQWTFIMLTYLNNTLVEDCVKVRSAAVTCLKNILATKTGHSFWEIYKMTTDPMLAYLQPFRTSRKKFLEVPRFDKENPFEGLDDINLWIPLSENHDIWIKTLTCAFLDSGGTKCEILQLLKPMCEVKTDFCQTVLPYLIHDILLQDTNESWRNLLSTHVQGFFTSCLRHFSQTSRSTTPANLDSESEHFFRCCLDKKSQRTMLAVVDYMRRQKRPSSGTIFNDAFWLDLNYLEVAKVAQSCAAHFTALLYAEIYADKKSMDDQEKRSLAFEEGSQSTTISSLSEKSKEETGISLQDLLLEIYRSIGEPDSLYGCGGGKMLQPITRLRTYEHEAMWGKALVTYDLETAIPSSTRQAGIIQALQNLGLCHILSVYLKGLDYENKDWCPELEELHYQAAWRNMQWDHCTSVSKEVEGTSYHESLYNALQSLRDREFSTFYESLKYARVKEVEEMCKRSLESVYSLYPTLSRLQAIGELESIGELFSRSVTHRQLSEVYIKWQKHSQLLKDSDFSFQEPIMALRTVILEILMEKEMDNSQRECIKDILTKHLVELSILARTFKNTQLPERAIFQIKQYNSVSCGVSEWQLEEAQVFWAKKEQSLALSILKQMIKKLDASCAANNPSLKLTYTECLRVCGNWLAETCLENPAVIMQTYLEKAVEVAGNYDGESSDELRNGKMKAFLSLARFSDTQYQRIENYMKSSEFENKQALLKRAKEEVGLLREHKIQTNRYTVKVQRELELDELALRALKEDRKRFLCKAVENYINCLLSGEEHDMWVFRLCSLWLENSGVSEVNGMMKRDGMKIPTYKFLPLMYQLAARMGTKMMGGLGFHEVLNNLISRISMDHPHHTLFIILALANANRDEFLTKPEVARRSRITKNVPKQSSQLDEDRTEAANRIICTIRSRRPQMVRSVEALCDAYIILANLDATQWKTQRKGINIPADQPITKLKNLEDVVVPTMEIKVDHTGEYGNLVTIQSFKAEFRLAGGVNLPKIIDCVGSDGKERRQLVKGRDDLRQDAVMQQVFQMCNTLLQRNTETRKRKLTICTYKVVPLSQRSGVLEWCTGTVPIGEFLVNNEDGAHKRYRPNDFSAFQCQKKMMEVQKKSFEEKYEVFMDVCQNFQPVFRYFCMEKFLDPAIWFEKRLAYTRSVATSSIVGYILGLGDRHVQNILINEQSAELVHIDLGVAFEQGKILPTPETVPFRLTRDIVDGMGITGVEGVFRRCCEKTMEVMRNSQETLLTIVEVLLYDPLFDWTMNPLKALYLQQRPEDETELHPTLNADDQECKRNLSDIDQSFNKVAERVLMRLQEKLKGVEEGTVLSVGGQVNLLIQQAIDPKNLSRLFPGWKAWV

Molecule `O=c1cc(N2CCOCC2)cc(-c2cccc3c2Sc2ccc(NCc4cccc(N5CCOCC5)n4)cc2S3)[nH]1` [Example 1-12-32, 4-Morpholino-6-(7-(((6-morpholinopyridin-2-yl)methyl)amino)thianthren-1 yl)pyridin-2(1H)-one] has a pIC50 of 6.30 to 7.00.

Same assay, conditions: phosphorylated Chk2 in NCI-H460 cells, ionizing radiation 8Gy, 1 hour after test compound treatment; read-out: ATM inhibitory activity

`COc1ncc(CN2CCC(Nc3ccc4c(c3)Cc3cccc(-c5cc(N6CCOCC6)cc(=O)[nH]5)c3O4)CC2)cn1` [Example 2-28-14, 6-(7-((1-((2-Methoxypyrimidin-5-yl)methyl)piperidin-4-yl)amino)-9H-xanthen-4-yl)-4-morpholino pyridin-2(1H)-one] and `CC(CN1CCC(Nc2ccc3c(c2)Cc2cccc(-c4cc(N5CCOCC5)cc(=O)[nH]4)c2O3)CC1)c1ccccc1` (stereo not drawn) [Example 2-28-37, 4-Morpholino-6-(7-((1-(2-phenylpropyl)piperidin-4-yl)amino)-9H-xanthen-4-yl) pyridin-2(1H)-one] fall in the same range of pIC50: 6.30 to 7.00 for the first, 6.30 to 7.00 for the second.

`CC(Nc1ccc2c(c1)Cc1cccc(-c3cc(N4CCOCC4)cc(=O)[nH]3)c1O2)c1cc(CF)ncn1` (stereo not drawn) [Example 2-14-65, 6-(7-((1-(6-(Fluoromethyl)pyrimidin-4-yl)ethyl)amino)-9H-xanthen-4-yl)-4-morpholino pyridin-2(1H)-one] and `CC(Nc1ccc2c(c1)Cc1cccc(-c3cc(N4CCOCC4)cc(=O)[nH]3)c1O2)c1nccc(CF)n1` (stereo not drawn) [Example 2-14-64, 6-(7-((1-(4-(Fluoromethyl)pyrimidin-2-yl)ethyl)amino)-9H-xanthen-4-yl)-4-morpholino pyridin-2(1H)-one] fall in the same range of pIC50: 6.30 to 7.00 for the first, 6.30 to 7.00 for the second.

Compared with `Cc1ccsc1CNc1ccc2c(c1)Sc1cccc(-c3cc(N4CCOCC4)cc(=O)[nH]3)c1S2` [Example 1-12-59, 6-(7-(((3-Methylthiophen-2-yl)methyl)amino)thianthren-1-yl)-4-morpholino pyridin-2 (1H)-one], `CC(Nc1ccc2c(c1)Sc1cccc(-c3cc(N4CCOCC4)cc(=O)[nH]3)c1S2)c1nccs1` (stereo not drawn) [Example 1-12-67, 4-Morpholino-6-(7-((1-(thiazol-2-yl)ethyl)amino)thianthren-1-yl)pyridin-2 (1H)-one] is higher in pIC50: 5.70 to 6.30 for the first, 6.30 to 7.00 for the second. The second is the more potent here.

First: Cc1ccc(C(CC2CC2)Nc2ccc3c(c2)Sc2cccc(-c4cc(N5CCOCC5)cc(=O)[nH]4)c2S3)nc1 (stereo not drawn) [Example 1-12-128, 6-(7-((2-Cyclopropyl-1-(5-methylpyridin-2-yl)ethyl)amino)thianthren-1-yl)-4-morpholino pyridin-2(1H)-one]
Second: Cc1ccc(C(Nc2ccc3c(c2)Sc2cccc(-c4cc(N5CCOCC5)cc(=O)[nH]4)c2S3)[C@@H]2CCN(C)C2)nc1 (single isomer, unassigned) [Example 1-56-16]
The pIC50 of the first is lower: 6.30 to 7.00 for the first, > 7.00 for the second.

`O=c1cc(N2CCOCC2)cc(-c2cccc3c2Oc2ccc(NCc4cncc(C5=CCCC5)c4)cc2C3)[nH]1` [Example 2-2-61, 6-(7-(((5-(Cyclopent-1-en-1-yl)pyridin-3-yl)methyl)amino)-9H-xanthen-4-yl)-4-morpholino pyridin-2(1H)-one] and `COCc1cncc(CNc2ccc3c(c2)Cc2cccc(-c4cc(N5CCOCC5)cc(=O)[nH]4)c2O3)c1` [Example 2-2-33, 6-(7-(((5-(Methoxymethyl)pyridin-3-yl)methyl)amino)-9H-xanthen-4-yl)-4-morpholino pyridin-2(1H)-one] fall in the same range of pIC50: 6.30 to 7.00 for the first, 6.30 to 7.00 for the second.

`CC(CN1CC(F)(F)C1)Nc1ccc2c(c1)Sc1cccc(-c3cc(N4CCOCC4)cc(=O)[nH]3)c1S2` (stereo not drawn) [Example 1-43-4, 6-(7-((1-(3,3-Difluoroazetidin-1-yl)propan-2-yl)amino)thianthren-1-yl)-4-morpholino pyridin-2(1H)-one] and `CC(CCN1CCCC1)Nc1ccc2c(c1)Sc1cccc(-c3cc(N4CCOCC4)cc(=O)[nH]3)c1S2` (stereo not drawn) [Example 1-42-4, 4-Morpholino-6-(7-((4-(pyrrolidin-1-yl)butan-2-yl)amino)thianthren-1-yl) pyridin-2(1H)-one] fall in the same range of pIC50: 6.30 to 7.00 for the first, 6.30 to 7.00 for the second.

`COc1ncc(C(C)Nc2ccc3c(c2)Sc2cccc(-c4cc(N5CCOCC5)cc(=O)[nH]4)c2S3)cn1` (stereo not drawn) [Example 1-12-76] and `COc1cncc(C(C)Nc2ccc3c(c2)Sc2cccc(-c4cc(N5CCOCC5)cc(=O)[nH]4)c2S3)n1` (stereo not drawn) [Example 1-12-78, 6-(7-((1-(6-Methoxypyrazin-2-yl)ethyl)amino)thianthren-1-yl)-4-morpholino pyridin-2 (1H)-one] fall in the same range of pIC50: 6.30 to 7.00 for the first, 6.30 to 7.00 for the second.

First: Cc1ccnc(C(CO)Nc2ccc3c(c2)Cc2cccc(-c4cc(N5CCOCC5)cc(=O)[nH]4)c2O3)n1 (stereo not drawn) [Example 2-14-82, 6-(7-((2-Hydroxy-1-(4-methylpyrimidin-2-yl)ethyl)amino)-9H-xanthen-4-yl)-4-morpholino pyridin-2(1H)-one]
Second: Cc1cccc(C(C)Nc2ccc3c(c2)Cc2cccc(-c4cc(N5CCOCC5)cc(=O)[nH]4)c2O3)n1 (single isomer, unassigned) [Example 2-14-85-1, 6-(7-((1-(6-methylpyridin-2-yl)ethyl)amino)-9H-xanthen-4-yl)-4-morpholinopyridin-2(1H)-one]
The pIC50 of the first is lower: 5.70 to 6.30 for the first, 6.30 to 7.00 for the second.

`COc1cncc(CNc2ccc3c(c2)Cc2cccc(-c4nc(N5CCOCC5)cc(=O)[nH]4)c2O3)c1` [Example 2-52-2, 2-(7-(((5-Methoxypyridin-3-yl)methyl)amino)-9H-xanthen-4-yl)-6-morpholino pyrimidine-4(3H)-one] and `Cc1cncc(CNc2ccc3c(c2)Cc2cccc(-c4cc(N5CCOCC5)cc(=O)[nH]4)c2O3)n1` [Example 2-14-74, 6-(7-(((6-Methylpyrazin-2-yl)methyl)amino)-9H-xanthen-4-yl)-4-morpholino pyridin-2(1H)-one] fall in the same range of pIC50: 6.30 to 7.00 for the first, 6.30 to 7.00 for the second.

First: CNCC(Nc1ccc2c(c1)Sc1cccc(-c3cc(N4CCOCC4)cc(=O)[nH]3)c1S2)c1cccc(C)n1 (single isomer, unassigned) [Example 1-19-4-2, 6-(7-((2-(Methylamino)-1-(6-methylpyridin-2-yl)ethyl)amino)thianthren-1-yl)-4-morpholinopyridin-2(1H)-one]
Second: Cc1cnc(C(CC(C)(C)O)Nc2ccc3c(c2)Sc2cccc(-c4cc(N5CCOCC5)cc(=O)[nH]4)c2S3)cn1 (stereo not drawn) [Example 1-12-117, 6-(7-((3-Hydroxy-3-methyl-1-(5-methylpyrazin-2-yl)butyl)amino)thianthren-1-yl)-4-morpholino pyridin-2(1H)-one]
The pIC50 of the first is lower: 5.70 to 6.30 for the first, 6.30 to 7.00 for the second. The second is the more potent here.

Compared with `O=c1cc(N2CCOCC2)cc(-c2cccc3c2Oc2ccc(NCc4ccc(OC5CCOCC5)nc4)cc2C3)[nH]1` [Example 2-2-4, 4-Morpholino-6-(7-(((6-((tetrahydro-2H-pyran-4-yl)oxy)pyridin-3-yl)methyl)amino)-9H-xanthen-4-yl)pyridin-2 (1H)-one], `O=c1cc(N2CCOCC2)cc(-c2cccc3c2Oc2ccc(NCc4cnc5ccccc5c4)cc2C3)[nH]1` [Example 2-2-46, 4-Morpholino-6-(7-((quinolin-3-ylmethyl)amino)-9H-xanthen-4-yl) pyridin-2(1H)-one] is higher in pIC50: 5.70 to 6.30 for the first, > 7.00 for the second.

`O=c1cc(N2CCOCC2)cc(-c2cccc3c2Sc2ccc(NC(CO)CN4CCOCC4)cc2S3)[nH]1` (stereo not drawn) [Example 1-37-2, 6-(7-((1-Hydroxy-3-morpholinopropan-2-yl)amino)thianthren-1-yl)-4-morpholino pyridin-2(1H)-one] and `[N-]=[N+]=NCC(CN1CCOCC1)Nc1ccc2c(c1)Sc1cccc(-c3cc(N4CCOCC4)cc(=O)[nH]3)c1S2` (stereo not drawn) [Example 9-1, 6-(7-((1-azide-3-morpholinopropan-2-yl)amino)thianthren-1-yl)-4-morpholinopyridin-2(1H)-one] fall in the same range of pIC50: 6.30 to 7.00 for the first, 6.30 to 7.00 for the second.

`O=c1cc(N2CCOCC2)cc(-c2cccc3c2Oc2ccc(NC4CCNCC4)cc2S3)[nH]1` [Example 4-9, 4-Morpholino-6-(8-(piperidin-4-ylamino)phenoxathiin-4-yl)pyridin-2(1H)-one] and `O=c1cc(N2CCOCC2)cc(-c2cccc3c2Sc2ccc(NC4CCCN(C5COC5)C4)cc2S3)[nH]1` (stereo not drawn) [Example 1-24-6, 4-Morpholino-6-(7-((1-(oxetan-3-yl)piperidin-3-yl)amino)thianthren-1-yl) pyridin-2(1H)-one] fall in the same range of pIC50: 6.30 to 7.00 for the first, 6.30 to 7.00 for the second.

Compared with `CCN(CC)C(=O)CN1CCN(c2cccc(CNc3ccc4c(c3)Sc3cccc(-c5cc(N6CCOCC6)cc(=O)[nH]5)c3S4)n2)CC1` [Example 1-12-34, N,N-Diethyl-2-(4-(6-(((6-(4-morpholino-6-oxo-1,6-dihydro-pyridin-2-yl)thianthren-2-yl)amino)methyl)pyridin-2-yl)piperazin-1-yl) acetamide], `CN(C)C(=O)Nc1ncc(CNc2ccc3c(c2)Sc2cccc(-c4cc(N5CCOCC5)cc(=O)[nH]4)c2S3)cn1` [Example 1-12-47] is higher in pIC50: 5.70 to 6.30 for the first, 6.30 to 7.00 for the second. The second is the more potent here.

`CC[C@@H](C(C)Nc1ccc2c(c1)Sc1cccc(-c3cc(N4CCOCC4)cc(=O)[nH]3)c1S2)N1CCOCC1` (stereo partly drawn) [Example 1-21-3, 4-Morpholino-6-(7-(((3S)-3-morpholinopentan-2-yl)amino)thianthren-1-yl) pyridin-2(1H)-one] and `COc1cncc(C(C)Nc2ccc3c(c2)Cc2cccc(-c4cc(N5CCOCC5)cc(=O)[nH]4)c2O3)n1` (stereo not drawn) [Example 2-14-57, 6-(7-((1-(6-Methoxypyrazin-2-yl)ethyl)amino)-9H-xanthen-4-yl)-4-morpholino pyridin-2(1H)-one] fall in the same range of pIC50: 6.30 to 7.00 for the first, 6.30 to 7.00 for the second.

`CC(C)(C)OC(=O)N1CCC[C@H]1C(=O)Nc1ccc2c(c1)Cc1cccc(-c3cc(N4CCOCC4)cc(=O)[nH]3)c1O2` [Example 2-20-2, (S)-tert-butyl 2-((5-(4-morpholino-6-oxo-1,6-dihydropyridin-2-yl)-9H-xanthen-2-yl)carbamoyl)pyrrolidine-1-carboxylate] and `O=c1cc(N2CCOCC2)cc(-c2cccc3c2Oc2ccc(Nc4cccnc4)cc2C3)[nH]1` [Example 2-61, 4-Morpholino-6-(7-(pyridin-3-ylamino)-9H-xanthen-4-yl)pyridin-2(1H)-one] fall in the same range of pIC50: 5.70 to 6.30 for the first, 5.70 to 6.30 for the second.
